pIC50: −log10 of the molar value.
Each compound was assayed against T1, human TLR7 (Homo sapiens, UniProt Q9NYK1) (assay: TLR7 inhibition reporter assay (HEK-Blue SEAP)). Details: HEK-Blue cells overexpressing human TLR7, gardiquimod 7.5 μM, 22 hour incubation.
T1 construct: host or cells: HEK-Blue cells
T1 sequence (Q9NYK1 27-1049): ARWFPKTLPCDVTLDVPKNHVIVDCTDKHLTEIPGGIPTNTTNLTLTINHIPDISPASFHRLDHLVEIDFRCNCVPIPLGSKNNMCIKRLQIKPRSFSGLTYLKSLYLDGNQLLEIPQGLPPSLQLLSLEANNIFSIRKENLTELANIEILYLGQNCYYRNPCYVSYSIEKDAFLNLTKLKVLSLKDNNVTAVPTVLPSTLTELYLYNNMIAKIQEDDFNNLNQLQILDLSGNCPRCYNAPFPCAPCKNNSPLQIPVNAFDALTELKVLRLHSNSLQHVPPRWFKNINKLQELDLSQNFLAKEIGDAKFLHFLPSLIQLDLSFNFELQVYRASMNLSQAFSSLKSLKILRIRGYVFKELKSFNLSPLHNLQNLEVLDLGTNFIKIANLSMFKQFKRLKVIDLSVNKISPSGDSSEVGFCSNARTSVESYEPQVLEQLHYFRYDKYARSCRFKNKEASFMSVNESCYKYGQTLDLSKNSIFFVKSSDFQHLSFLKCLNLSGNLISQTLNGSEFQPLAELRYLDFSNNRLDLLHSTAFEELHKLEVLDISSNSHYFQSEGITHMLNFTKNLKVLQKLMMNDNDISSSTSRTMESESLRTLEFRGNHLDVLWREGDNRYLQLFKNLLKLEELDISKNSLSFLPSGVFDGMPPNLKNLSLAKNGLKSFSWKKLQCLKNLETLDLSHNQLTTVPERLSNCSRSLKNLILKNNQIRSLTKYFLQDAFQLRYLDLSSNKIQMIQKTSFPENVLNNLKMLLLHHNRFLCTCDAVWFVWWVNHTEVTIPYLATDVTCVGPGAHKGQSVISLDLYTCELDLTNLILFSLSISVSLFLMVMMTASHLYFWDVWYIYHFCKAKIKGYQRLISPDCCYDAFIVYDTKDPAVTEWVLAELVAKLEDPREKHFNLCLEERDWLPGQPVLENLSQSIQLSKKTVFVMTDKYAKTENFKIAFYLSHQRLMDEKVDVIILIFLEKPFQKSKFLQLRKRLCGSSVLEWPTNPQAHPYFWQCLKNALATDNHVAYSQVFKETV
Assay type: cell-based
Summary of the method: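 Cells (15000/well for TLR7, 20,000 for TLR8) were treated with compounds over 0.05 nM-50 μM final. After 22 h at 37° C, 5% CO2, SEAP was measured with HEK-Blue Detection reagent; percent inhibition was taken as reduction of agonist-plus-DMSO signal relative to a known inhibitor.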

pIC50	Structure (SMILES)
7.96	COc1cc(-c2cc3[nH]c(=O)n(C4CCC(N5CCNC(=O)C5)CC4)c3cc2C(C)C)cn2ncnc12 (single isomer, unassigned) [Example 233, 6-isopropyl-5-(8-methoxy-[1,2,4]triazolo[1,5-a]pyridin-6-yl)-1-(4-(3-oxopiperazin-1-yl)cyclohexyl)-1,3-dihydro-2H-benzo[d]imidazol-2-one]
9.09	COc1cc(-c2cc3[nH]c(=O)n(C4CCC(N5CC(OC)C5)CC4)c3cc2C(C)C)cn2ncnc12 (stereo not drawn) [Example 238, 6-isopropyl-5-(8-methoxy-[1,2,4]triazolo[1,5-a]pyridin-6-yl)-1-(4-(3-methoxyazetidin-1-yl)cyclohexyl)-1,3-dihydro-2H-benzo[d]imidazol-2-one]
6.61	COc1cc(-c2cc3[nH]c(=O)n([C@H]4CCCN(CC(N)=O)C4)c3cc2C(C)C)cn2ncnc12 [Example 220, (S)-2-(3-(6-isopropyl-5-(8-methoxy-[1,2,4]triazolo[1,5-a]pyridin-6-yl)-2-oxo-2,3-dihydro-1H-benzo[d]imidazol-1-yl)piperidin-1-yl)acetamide]
7.95	COc1cc(-c2cc3[nH]c(=O)n([C@@H]4CCCN(C5CCOC5)C4)c3cc2C(C)C)cn2ncnc12 (stereo partly drawn) [Example 217, 6-isopropyl-5-(8-methoxy-[1,2,4]triazolo[1,5-a]pyridin-6-yl)-1-((3R)-1-(tetrahydrofuran-3-yl)piperidin-3-yl)-1,3-dihydro-2H-benzo[d]imidazol-2-one]
9.09	CCc1cc2c(cc1-c1cc(OC)c3ncnn3c1)[nH]c(=O)n2[C@@H]1CCCN(CC(CC)CC)C1 [Example 178, (R)-6-ethyl-1-(1-(2-ethylbutyl)piperidin-3-yl)-5-(8-methoxy-[1,2,4]triazolo[1,5-a]pyridin-6-yl)-1,3-dihydro-2H-benzo[d]imidazol-2-one]
7.08	COc1cc(-c2cc3[nH]c(=O)n(C4CCN(CCS(C)(=O)=O)CC4)c3cc2C(C)C)cn2ncnc12 [Example 224, 6-isopropyl-5-(8-methoxy-[1,2,4]triazolo[1,5-a]pyridin-6-yl)-1-(1-(2-(methylsulfonyl)ethyl)piperidin-4-yl)-1,3-dihydro-2H-benzo[d]imidazol-2-one]
8.27	COc1cc(-c2cc3[nH]c(=O)n([C@@H]4CCCN(C5CCCOC5)C4)c3cc2C(C)C)cn2ncnc12 (single isomer, unassigned) [Example 218]
6.56	Cc1cc2c(cc1-c1cc(C)c3ncnn3c1)[nH]c(=O)n2[C@H]1CCCN(C)C1 [Example 11, (S)-6-methyl-5-(8-methyl-[1,2,4]triazolo[1,5-a]pyridin-6-yl)-1-(1-methylpiperidin-3-yl)-1,3-dihydro-2H-benzo[d]imidazol-2-one]
7.87	CCc1cc2c(cc1-c1cc(OC)c3ncnn3c1)[nH]c(=O)n2[C@@H]1CCCN(C2CCCOC2)C1 (stereo partly drawn) [Example 215, 6-ethyl-5-(8-methoxy-[1,2,4]triazolo[1,5-a]pyridin-6-yl)-1-((3R)-1-(tetrahydro-2H-pyran-3-yl)piperidin-3-yl)-1,3-dihydro-2H-benzo[d]imidazol-2-one]
8.68	COc1cc(-c2cc3[nH]c(=O)n([C@H]4CC[C@H](NC5COC5)CC4)c3cc2C(C)C)cn2ncnc12 [Example 201, 6-isopropyl-5-(8-methoxy-[1,2,4]triazolo[1,5-a]pyridin-6-yl)-1-((1r,4r)-4-(oxetan-3-ylamino)cyclohexyl)-1,3-dihydro-2H-benzo[d]imidazol-2-one]
7.98	COc1cc(-c2cc3[nH]c(=O)n(C4CCC(N5CC(O)(C(F)(F)F)C5)CC4)c3cc2C(C)C)cn2ncnc12 (single isomer, unassigned) [Example 242, 1-(4-(3-hydroxy-3-(trifluoromethyl)azetidin-1-yl)cyclohexyl)-6-isopropyl-5-(8-methoxy-[1,2,4]triazolo[1,5-a]pyridin-6-yl)-1,3-dihydro-2H-benzo[d]imidazol-2-one]
8.10	COCCN1CCC[C@@H](n2c(=O)[nH]c3cc(-c4cc(OC)c5ncnn5c4)c(C(C)C)cc32)C1 (single isomer, unassigned) [Example 225]
8.34	CCc1cc2c(cc1-c1cc(OC)c3ncnn3c1)[nH]c(=O)n2[C@@H]1CCCN(CC)C1 [Example 171, (R)-6-ethyl-1-(1-ethylpiperidin-3-yl)-5-(8-methoxy-[1,2,4]triazolo[1,5-a]pyridin-6-yl)-1,3-dihydro-2H-benzo[d]imidazol-2-one]
6.91	Cc1cc2c(cc1-c1cc(C)c3ncnn3c1)[nH]c(=O)n2[C@H]1CCCN(C(C)C)C1 [Example 13, (S)-1-(1-isopropylpiperidin-3-yl)-6-methyl-5-(8-methyl-[1,2,4]triazolo[1,5-a]pyridin-6-yl)-1,3-dihydro-2H-benzo[d]imidazol-2-one]
8.20	CCc1cc2c(cc1-c1cc(OC)c3ncnn3c1)[nH]c(=O)n2[C@H]1CC[C@@H](NC2COC2)CC1 [Example 170, 6-ethyl-5-(8-methoxy-[1,2,4]triazolo[1,5-a]pyridin-6-yl)-1-((1s,4s)-4-(oxetan-3-ylamino)cyclohexyl)-1,3-dihydro-2H-benzo[d]imidazol-2-one]
8.32	COc1cc(-c2cc3[nH]c(=O)n([C@H]4CC[C@H](N(CC(C)C)CC(C)C)CC4)c3cc2C(C)C)cn2ncnc12 [Example 205, 1-((1r,4r)-4-(diisobutylamino)cyclohexyl)-6-isopropyl-5-(8-methoxy-[1,2,4]triazolo[1,5-a]pyridin-6-yl)-1,3-dihydro-2H-benzo[d]imidazol-2-one]
8.94	CCc1cc2c(cc1-c1cc(OC)c3ncnn3c1)[nH]c(=O)n2[C@@H]1CCCN(C)C1 [Example 174, (R)-6-ethyl-5-(8-methoxy-[1,2,4]triazolo[1,5-a]pyridin-6-yl)-1-(1-methylpiperidin-3-yl)-1,3-dihydro-2H-benzo[d]imidazol-2-one]
8.10	CCc1cc2c(cc1-c1cc(OC)c3ncnn3c1)[nH]c(=O)n2[C@@H]1CCCN(CC2CCCC2)C1 [Example 209, (R)-1-(1-(cyclopentylmethyl)piperidin-3-yl)-6-ethyl-5-(8-methoxy-[1,2,4]triazolo[1,5-a]pyridin-6-yl)-1,3-dihydro-2H-benzo[d]imidazol-2-one]
8.97	CCc1cc2c(cc1-c1cc(OC)c3ncnn3c1)[nH]c(=O)n2[C@@H]1CCCN(CC(C)C)C1 [Example 177, (R)-6-ethyl-1-(1-isobutylpiperidin-3-yl)-5-(8-methoxy-[1,2,4]triazolo[1,5-a]pyridin-6-yl)-1,3-dihydro-2H-benzo[d]imidazol-2-one]
7.46	CCc1cc2c(cc1-c1cc(OC)c3ncnn3c1)[nH]c(=O)n2[C@@H]1CCCN(C(=O)CN(C)C)C1 [Example 228, (R)-1-(1-(dimethylglycyl)piperidin-3-yl)-6-ethyl-5-(8-methoxy-[1,2,4]triazolo[1,5-a]pyridin-6-yl)-1,3-dihydro-2H-benzo[d]imidazol-2-one]
7.49	CCc1cc2c(cc1-c1cc(OC)c3ncnn3c1)[nH]c(=O)n2[C@@H]1CCCN(C2COC2)C1 [Example 173, (R)-6-ethyl-5-(8-methoxy-[1,2,4]triazolo[1,5-a]pyridin-6-yl)-1-(1-(oxetan-3-yl)piperidin-3-yl)-1,3-dihydro-2H-benzo[d]imidazol-2-one]
7.62	COc1cc(-c2cc3[nH]c(=O)n([C@H]4CC[C@H](NC5CCN(C(C)C)CC5)CC4)c3cc2C(C)C)cn2ncnc12 [Example 207, 6-isopropyl-1-((1r,4r)-4-((1-isopropylpiperidin-4-yl)amino)cyclohexyl)-5-(8-methoxy-[1,2,4]triazolo[1,5-a]pyridin-6-yl)-1,3-dihydro-2H-benzo[d]imidazol-2-one]
8.77	COc1cc(-c2cc3[nH]c(=O)n(C4CCC(N5CCC6(CC5)COC6)CC4)c3cc2C(C)C)cn2ncnc12 (stereo not drawn) [Example 239, 1-(4-(2-oxa-7-azaspiro[3.5]nonan-7-yl)cyclohexyl)-6-isopropyl-5-(8-methoxy-[1,2,4]triazolo[1,5-a]pyridin-6-yl)-1,3-dihydro-2H-benzo[d]imidazol-2-one]
8.49	COc1cc(-c2cc3[nH]c(=O)n([C@H]4CC[C@H](NCC(C)C)CC4)c3cc2C(C)C)cn2ncnc12 [Example 204, 1-((1r,4s)-4-(isobutylamino)cyclohexyl)-6-isopropyl-5-(8-methoxy-[1,2,4]triazolo[1,5-a]pyridin-6-yl)-1,3-dihydro-2H-benzo[d]imidazol-2-one]
